Source: US9439942B2, “Peptides and use thereof in the treatment of large cell lung cancer” (Biokine Therapeutics Ltd., priority 2012, dated 2016)
“Also recorded” adds a separate entry of the source. Where two headings read alike, the source gives them in different places. Non-standard residues stand in square brackets, D forms with d. *: point of attachment. Benzoyl(4-F) = O=C(c1ccc(F)cc1)*; Cit = NC(=O)NCCC[C@H](N)C(=O)O

Columns and labels:
[1] = tested on: H460 cells (large cell carcinoma); experiment: Proliferation / survival assay and Giemsa stain, H460; format: cell-based, human; conditions: for H460 tumor cell proliferation, agent alone: 0.1 μg/ml, did not completely inhibit proliferation
Procedure: (§1) Color extraction was done using 0.1 N HCl. […] 6 wells were determined for each time point.

[2] = tested on: bone marrow derived cells; conditions: cited from earlier work
[3] = target: T1, human CXCR4 (Homo sapiens, UniProt P61073); experiment: Immunohistochemistry for CXCR4 in H460 derived tumors after S.C. BKT140; format: in vivo; conditions: BKT140 S.C. at a site distant from the tumor, 6 hours prior to sacrification
T1 construct: Tissue sections from H460 derived tumors were tested for CXCR4 expression; endogenous in cells; host or cells: H460 NSCLC cells grown as subcutaneous xenografts in Nude mice
Procedure: (§2) 1*10^6 H460 cells mixed in 100 μl RPMI 1640 and 100 μl matrigel (BD Bioscience) were injected subcutaneously (S.C.) into the right flank of Nude mice. Tumor growth was followed for 19 days. 1*10^6 A549 cells mixed in 100 μl RPMI 1640 and 100 μl matrigel (BD Bioscience) were injected S.C. into the right flank of Nude mice. Tumor growth was followed for 35 days. Systemic BKT140 administration was performed as follows: BKT140 (400 μg/mice dissolved in PBS) was administered once daily 6/7 days a week, by S.C. injection into the left flank at a point distant at least 1.5 cm from the right sided tumor. Tumors size was calculated by measurement of tumor length and width using the following formula: 4/3*π*(length/2)*(width/2)^2.
Tissue sections of tumor-bearing Nude mice were routinely fixed with formalin and embedded in paraffin. Antigen retrieval was performed, and sections were stained with either mAb 44708 (R&D Systems, Minneapolis, MN) or 12G5 (R&D Systems) for human CXCR4 (1:100) using a standard indirect avidin-biotin HRP method according to the manufacturer's instructions. 3-Amino-9-ethylcarbazole was used for color development and sections were counterstained with hematoxylin. As negative controls, sections were stained either with no primary Ab (PBS) or with an isotype-matched control Ab.

[4] = tested on: NSCLC cell lines (H358, A549, H460, H1299 and L4); experiment: Colony assay (agar), NSCLC cell lines; format: cell-based, human
Procedure: (§3) The H460 (large cell carcinoma), A549 (Adenocarcinoma), H358 (Bronchoalveolar carcinoma), H1299 (large cell carcinoma)—cell lines were all purchased from ATCC and were maintained in RPMI (Gibco Laboratories, Grand Island, N.Y.) containing 10% fetal calf serum (FCS), 1 mM L-glutamine, 100 U/ml penicillin, and 0.01 mg/ml streptomycin (Biological Industries, Kibbutz Beth Haemek, Israel). L-4 (a primary NSCLC cell line) was generated from large cell carcinoma as previously described (Wald et al, J Thorac Cardiovasc Surg. 2011 June; 141(6): 1503-12).
(§4) Agar base layer was prepared as follows: 45 ml of RPMI+12% FCS was mixed with 15 ml of RPMI X2+12% FCS and with 15 ml of 2.5% agar in double distilled water. Tumor cells were suspended in RPMI+10% FCS. Cell suspension was mixed in a ratio of 1:3 with the agar base solution. This mixture was then plated on top of a preformed solid agar base. […] Fourteen days later, the number of colonies was counted in ten different fields.
(§5) Data was expressed as mean ±standard error (SE) and as absolute values. Continuous data with normal distribution were analyzed using T-test. Categorical data were analyzed using Mann-Whitney U test. A p value of 0.05 was considered significant. * P<0.05, ** P<0.01. Statistical analyses were performed using (SPSS software, (IBM).

[5] = tested on: H1299 cells (large cell carcinoma); experiment: Colony assay (agar), H1299; format: cell-based, human; conditions: 100 μg\ml BKT140 with CXCL12
Procedure: as §3, §4, §5

[6] = tested on: NSCLC cell lines (H358, A549, H460, H1299 and L4); experiment: Proliferation and survival assays, NSCLC cell lines; format: cell-based, human; conditions: 20 or 100 μg/ml BKT140, dose dependant
Procedure: as §1

[7] = tested on: A549 cells (Adenocarcinoma); conditions: for A549 tumor cell proliferation, agent alone: 0.1 μg/ml, did not completely inhibit proliferation
Procedure: To measure cell proliferation, 4000 cells were seeded into 96-well cell culture plates with 200 μl RPMI 1640 medium supplemented with 10% FCS under the following conditions: 37° C., and 5% CO2. Twenty-four hours later, the medium was to changed to RPMI 1640 supplemented with 1% FCS. 20 μg\ml, 50 μg/ml or 100 μg\ml BKT140, with or without Cisplatin 0.1 μg/ml or paclitaxel 0.1 μg/ml to 1 μg/ml μg/ml were added to the medium. For radiation experiments, prior to plating of cells, the cells were irradiated at the following doses 500 to 2000 Rad. Cultured cells were fixed with 2.5% Gluteraldehyde at the indicated time points and stained with 1% Methylene Blue. Color extraction was done using 0.1 N HCl. Absorbance of the solution in each well at 570 nm was read with micro-plate reader (Anthos Htll). 6 wells were determined for each time point.

[8] = tested on: H358 cells (Bronchoalveolar carcinoma); experiment: Colony assay (agar), H358; format: cell-based, human; conditions: 100 μg\ml BKT140 with CXCL12
Procedure: as §3, §4, §5

[9] = tested on: H460 derived tumors; experiment: H460 derived xenograft growth in Nude mice; format: in vivo; conditions: BKT140 400 μg/mice S.C. once daily 6/7 days a week
Procedure: as §2

[10] = tested on: A549 derived tumors; experiment: A549 derived xenograft growth in Nude mice; format: in vivo; conditions: BKT140 400 μg/mice S.C. once daily 6/7 days a week
Procedure: as §2

[11] = tested on: A549 cells (Adenocarcinoma); experiment: Colony assay (agar), A549; format: cell-based, human
Procedure: as §3, §4, §5

[12] = tested on: H460 cells (large cell carcinoma); experiment: Colony assay (agar), H460; format: cell-based, human
Procedure: as §3, §4, §5

[13] = increasing BKT140 with irradiation 500 Rad, cisplatin 0.1 μg/ml or paclitaxel 0.1 μg/ml (paclitaxel data not shown)

T1 sequence (P61073 whole entry): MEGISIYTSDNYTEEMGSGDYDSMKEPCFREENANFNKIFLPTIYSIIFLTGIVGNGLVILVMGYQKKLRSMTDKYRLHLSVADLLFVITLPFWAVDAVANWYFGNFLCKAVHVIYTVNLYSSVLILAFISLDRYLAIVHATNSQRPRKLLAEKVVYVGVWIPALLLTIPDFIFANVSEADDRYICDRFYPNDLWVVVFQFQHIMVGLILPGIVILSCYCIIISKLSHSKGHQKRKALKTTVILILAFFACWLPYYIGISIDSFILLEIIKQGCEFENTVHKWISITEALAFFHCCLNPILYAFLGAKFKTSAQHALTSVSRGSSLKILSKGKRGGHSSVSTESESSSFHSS

Compound: 4F-benzoyl-Arg-Arg-Nal-Cys-Tyr-Cit-Lys-DLys-Pro-Tyr-Arg-Cit-Cys-Arg-NH2 ({Benzoyl(4-F)}-RR[Nal]CY[Cit]K[dK]PYR[Cit]CR-NH2; cysteine pairing not given here) [BKT140]
- H460 tumor cell proliferation ([1]; BKT140 20 μg/ml): completely arrest
- H460 cytotoxic effect ([1]; BKT140 100 μg/ml): tumor cell death
- H460 proliferation, combination effect [1, 13]: additive anti proliferative effects
- time of return of mobilization to base line ([2]; post BKT140 injection): 24 h
- time of peak mobilization of bone marrow derived cells ([2]; post S.C. injection): four to eight
- CXCR4 staining of tumor tissue (binding to tumor expressed CXCR4) [3]: completely blocked CXCR4 staining
- colony formation ([4]; single dose of 100 μg\ml BKT140 on day one, over entire range of CXCL12 concentrations): reduced colony formation
- inhibitory effect on colony formation (compared between cell lines) [5]: most evident
- NSCLC proliferation (cytostatic / cytotoxic effect) [6]: inhibited; also recorded: both cytostatic and cytotoxic effects
- tumor cell survival [6]: reduced tumor cell survival
- A549 tumor cell proliferation ([7]; BKT140 20 μg/ml): did not affect
- A549 tumor cell proliferation ([7]; BKT140 100 μg/ml): significantly reduced
- A549 proliferation, combination effect [7, 13]: additive anti proliferative effects
- inhibitory effect on colony formation (compared between cell lines) [8]: least evident
- volume / development of H460 derived tumors ([9]; 19 days): significantly reduced; also recorded: significantly delayed
- decrease of median tumor volume ([9]; H460): ~50%
- volume / development of A549 derived tumors ([10]; 35 days): much reduced effect
- decrease of median tumor volume ([10]; A549): ~50%
- inhibitory effect on colony formation (compared between cell lines) ([11]; 100 μg\ml BKT140 with CXCL12): least evident
- inhibitory effect on colony formation (compared between cell lines) ([12]; 100 μg\ml BKT140 with CXCL12): most evident

Compound: N.N.[Cl][Pt][Cl] [cisplatin, reference compound]
- H460 tumor cell proliferation, agent alone [1]: moderate anti-proliferative effect
- A549 tumor cell proliferation, agent alone [7]: moderate anti-proliferative effect

Compound: CC(=O)O[C@H]1C(=O)[C@@]2(C)[C@H]([C@H](OC(=O)c3ccccc3)[C@]3(O)C[C@H](OC(=O)[C@H](O)[C@@H](NC(=O)c4ccccc4)c4ccccc4)C(C)=C1C3(C)C)[C@]1(OC(C)=O)CO[C@@H]1C[C@@H]2O [paclitaxel, reference compound]
- H460 tumor cell proliferation, agent alone [1]: moderate anti-proliferative effect
- A549 tumor cell proliferation, agent alone [7]: moderate anti-proliferative effect

Compound: CXCL12: The chemokine CXCL12 (stromal-derived factor-1 or SDF-1), the only natural ligand of CXCR4
- colony formation ([4]; CXCL12 25-250 ng/ml, colonies counted after fourteen days): dose dependant increase in colony formation
- fold increase in colony number ([11]; similar CXCL12 concentrations (250 ng/ml)): 1.4 fold
- fold increase in colony number ([12]; 250 ng/ml CXCL12): 2.5 fold
